From ChEMBL document CHEMBL1201862, “PubChem BioAssay data set” (2004)
Values joined by “and” are separate entries in the source; they are usually repeats but may differ in a detail not shown here. Equal entries are not always repeated. Active and inactive are the calls of the source. Cut-off read from the data, not from the text of the source, for most assays here: actives have a measured IC50 and inactives only a lower limit.

Legend:
Assay type in all cases: functional
[1] = biological target: T1, Sentrin-specific protease 6 (Homo sapiens, UniProt Q9GZR1); assay: SENP6 protease inhibitors, SAR follow-up, biochemical, luminescence, set 2 (AID 588598)
T1 sequence (Q9GZR1 whole entry): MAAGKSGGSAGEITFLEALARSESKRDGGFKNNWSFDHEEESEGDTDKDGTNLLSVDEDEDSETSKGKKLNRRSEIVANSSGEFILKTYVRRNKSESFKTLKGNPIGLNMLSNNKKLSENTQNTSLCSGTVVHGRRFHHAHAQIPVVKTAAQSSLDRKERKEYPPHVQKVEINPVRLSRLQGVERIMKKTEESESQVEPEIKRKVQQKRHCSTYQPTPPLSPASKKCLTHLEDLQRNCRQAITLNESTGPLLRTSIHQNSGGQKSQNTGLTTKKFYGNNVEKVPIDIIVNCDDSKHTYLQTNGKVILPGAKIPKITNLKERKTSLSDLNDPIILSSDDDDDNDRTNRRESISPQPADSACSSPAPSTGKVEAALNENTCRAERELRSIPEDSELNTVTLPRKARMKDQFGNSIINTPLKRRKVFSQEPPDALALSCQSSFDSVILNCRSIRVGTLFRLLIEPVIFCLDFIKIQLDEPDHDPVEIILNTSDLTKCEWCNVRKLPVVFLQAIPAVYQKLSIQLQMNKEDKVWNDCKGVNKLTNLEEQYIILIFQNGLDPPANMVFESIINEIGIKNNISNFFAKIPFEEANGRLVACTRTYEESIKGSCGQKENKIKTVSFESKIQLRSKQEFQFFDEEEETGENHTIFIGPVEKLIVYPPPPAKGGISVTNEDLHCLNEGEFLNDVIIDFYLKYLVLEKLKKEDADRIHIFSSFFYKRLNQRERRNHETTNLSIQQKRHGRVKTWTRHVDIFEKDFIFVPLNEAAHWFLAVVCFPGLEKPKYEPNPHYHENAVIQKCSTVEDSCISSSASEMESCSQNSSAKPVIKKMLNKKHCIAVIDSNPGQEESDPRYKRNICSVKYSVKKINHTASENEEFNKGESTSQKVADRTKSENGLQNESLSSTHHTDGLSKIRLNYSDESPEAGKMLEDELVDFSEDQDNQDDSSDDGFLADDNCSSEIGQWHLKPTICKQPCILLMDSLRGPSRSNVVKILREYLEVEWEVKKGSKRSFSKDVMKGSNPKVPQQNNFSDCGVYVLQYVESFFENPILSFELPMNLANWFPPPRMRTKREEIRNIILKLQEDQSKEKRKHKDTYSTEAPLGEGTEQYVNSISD

[2] = biological target: T2, Sentrin-specific protease 8 (Homo sapiens, UniProt Q96LD8); assay: SENP8 protease inhibitors, SAR follow-up, biochemical, luminescence (AID 504501)
T2 sequence (Q96LD8 whole entry): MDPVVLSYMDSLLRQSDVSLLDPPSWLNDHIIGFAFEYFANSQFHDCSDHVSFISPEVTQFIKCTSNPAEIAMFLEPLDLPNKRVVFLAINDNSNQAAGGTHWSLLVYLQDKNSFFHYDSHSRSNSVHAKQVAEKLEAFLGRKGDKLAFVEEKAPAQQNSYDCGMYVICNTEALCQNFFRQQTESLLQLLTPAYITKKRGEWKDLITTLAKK

[3] = biological target: T1, Sentrin-specific protease 6; assay: SAR Analysis of small molecule inhibitors of Sentrin-specific protease 6 (SENP6) using a Luminescent assay. [Related pubchem assays (depositor defined):AID2582, AID2599]
[4] = biological target: T3, Sentrin-specific protease 7 (Homo sapiens, UniProt Q9BQF6); assay: SENP7 protease inhibitors, SAR follow-up, biochemical, luminescence, set 2 (AID 588600)
T3 sequence (Q9BQF6 whole entry): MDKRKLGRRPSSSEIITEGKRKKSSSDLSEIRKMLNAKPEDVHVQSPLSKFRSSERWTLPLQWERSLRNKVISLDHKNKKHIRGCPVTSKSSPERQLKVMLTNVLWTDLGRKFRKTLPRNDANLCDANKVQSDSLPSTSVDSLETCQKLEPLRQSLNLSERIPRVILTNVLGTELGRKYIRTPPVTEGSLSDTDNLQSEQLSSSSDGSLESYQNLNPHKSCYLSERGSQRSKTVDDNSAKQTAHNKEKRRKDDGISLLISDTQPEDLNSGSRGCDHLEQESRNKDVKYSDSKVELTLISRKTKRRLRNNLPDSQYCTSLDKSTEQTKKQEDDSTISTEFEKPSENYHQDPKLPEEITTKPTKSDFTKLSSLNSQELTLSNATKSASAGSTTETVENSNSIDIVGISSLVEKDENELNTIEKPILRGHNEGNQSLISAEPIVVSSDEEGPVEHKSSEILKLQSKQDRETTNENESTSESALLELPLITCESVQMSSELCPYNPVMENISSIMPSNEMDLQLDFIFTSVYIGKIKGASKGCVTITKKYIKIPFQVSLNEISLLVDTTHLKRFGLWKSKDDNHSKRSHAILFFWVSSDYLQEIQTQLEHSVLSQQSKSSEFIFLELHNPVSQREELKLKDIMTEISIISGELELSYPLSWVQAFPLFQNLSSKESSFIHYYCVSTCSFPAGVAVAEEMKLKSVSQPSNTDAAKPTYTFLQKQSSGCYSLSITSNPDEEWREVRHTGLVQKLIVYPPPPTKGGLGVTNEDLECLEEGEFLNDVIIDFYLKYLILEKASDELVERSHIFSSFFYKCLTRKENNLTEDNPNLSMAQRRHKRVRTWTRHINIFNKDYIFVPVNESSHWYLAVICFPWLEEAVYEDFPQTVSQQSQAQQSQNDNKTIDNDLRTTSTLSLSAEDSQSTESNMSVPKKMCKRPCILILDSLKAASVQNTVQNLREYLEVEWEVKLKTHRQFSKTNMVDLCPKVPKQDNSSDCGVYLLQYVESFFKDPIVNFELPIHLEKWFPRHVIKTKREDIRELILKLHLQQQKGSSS

Caspase-3 = biological target: T4, Caspase-3 (Homo sapiens, UniProt P42574); assay: SAR Analysis of small molecule inhibitors of Sentrin-specific proteases (SENPs) using a Caspase-3 Selectivity assay. [Related pubchem assays (depositor defined):AID2540, AID2599, AID434973, AID489001]
T4 sequence (P42574 whole entry): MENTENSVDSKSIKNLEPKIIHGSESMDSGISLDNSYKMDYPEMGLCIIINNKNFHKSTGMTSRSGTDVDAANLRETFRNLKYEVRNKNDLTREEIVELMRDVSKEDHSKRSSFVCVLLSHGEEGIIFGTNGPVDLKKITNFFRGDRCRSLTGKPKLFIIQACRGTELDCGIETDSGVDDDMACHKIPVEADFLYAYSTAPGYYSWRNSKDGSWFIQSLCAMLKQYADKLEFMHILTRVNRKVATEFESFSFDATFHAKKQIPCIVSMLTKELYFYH

[5] = biological target: T3, Sentrin-specific protease 7; assay: SENP7 protease inhibitors, SAR follow-up, biochemical, luminescence (AID 504497)
[6] = biological target: T2, Sentrin-specific protease 8; assay: SENP8 protease inhibitors, SAR follow-up, biochemical, luminescence, set 2 (AID 588601)
[7] = biological target: T5, Neuropeptides B/W receptor type 1 (Homo sapiens, UniProt P48145); assay: GPR7 antagonist potency, late-stage follow-up, cell-based, fluorescence, dose response, set 6 (AID 588583)
T5 sequence (P48145 whole entry): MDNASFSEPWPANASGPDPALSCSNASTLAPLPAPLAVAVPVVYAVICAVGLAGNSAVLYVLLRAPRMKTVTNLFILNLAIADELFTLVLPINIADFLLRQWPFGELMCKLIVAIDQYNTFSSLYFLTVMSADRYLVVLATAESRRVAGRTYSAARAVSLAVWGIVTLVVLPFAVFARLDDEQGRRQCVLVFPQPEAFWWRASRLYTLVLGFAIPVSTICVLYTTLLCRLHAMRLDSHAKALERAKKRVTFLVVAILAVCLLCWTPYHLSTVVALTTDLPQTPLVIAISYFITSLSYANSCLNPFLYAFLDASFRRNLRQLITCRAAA

[8] = biological target: Melanin-concentrating hormone receptor 1 (Homo sapiens, UniProt Q99705); assay: Late-stage fluorescence-based counterscreen for antagonists of the G-protein coupled receptor 7 (GPR7): cell-based dose response assay to identify antagonists of the melanin-concentrating hormone receptor 1 (MCHR1) Set 6.
Melanin-concentrating hormone receptor 1, sequence (Q99705 whole entry): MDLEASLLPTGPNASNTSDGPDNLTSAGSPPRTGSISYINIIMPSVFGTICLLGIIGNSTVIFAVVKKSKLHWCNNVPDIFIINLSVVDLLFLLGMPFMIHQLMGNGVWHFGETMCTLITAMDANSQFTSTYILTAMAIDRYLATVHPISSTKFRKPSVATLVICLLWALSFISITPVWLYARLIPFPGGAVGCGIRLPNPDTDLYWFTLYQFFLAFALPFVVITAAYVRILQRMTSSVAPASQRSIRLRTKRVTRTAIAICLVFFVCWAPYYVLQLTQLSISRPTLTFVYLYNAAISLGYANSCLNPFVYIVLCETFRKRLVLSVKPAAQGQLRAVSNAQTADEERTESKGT

| IC50 [1] | IC50 [3] | IC50 [4] | IC50 (Caspase-3) | IC50 [5] | IC50 [7] | IC50 [8] | Structure (SMILES) | IC50 [2] | IC50 [6] |
| --- | --- | --- | --- | --- | --- | --- | --- | --- | --- |
| – | – | – | – | – | 253 nM (active) and 1.62 µM (active) | 253 nM (active) and 1.62 µM (active) | CC(C)c1ccc(C(C#N)c2c(Cl)cnn(Cc3cccc4ccccc34)c2=O)cc1 (configuration not stated) | – | – |
| – | – | – | – | – | > 20 µM (inactive) | > 20 µM (inactive) | CCn1ccc2ccc(Oc3c(Cl)cnn(Cc4cccc5ccccc45)c3=O)cc21 | – | – |

The remaining lines, values behind:

| Structure (SMILES) | IC50 [1] | IC50 [3] | IC50 [4] | IC50 (Caspase-3) | IC50 [5] | IC50 [7] | IC50 [8] | IC50 [2] | IC50 [6] |
| --- | --- | --- | --- | --- | --- | --- | --- | --- | --- |
| CCCCc1ccc2nc(NC(=O)c3sccc3Cl)sc2c1 | 1.15 µM (active) | 0.97 µM (active) | 1.16 µM (active) | 1.1 µM (active) | 0.96 µM (active) | – | – | 0.99 µM (active) | 1.06 µM (active) |
| O=C(Nc1ccc(-c2noc(/C=C/c3ccccc3)n2)cc1)c1ccc(Br)o1 | – | > 99 µM (inactive) | – | > 99 µM (inactive) | > 99 µM (inactive) | – | – | > 99 µM (inactive) | – |
| N#Cc1cccc(C(C#N)c2c(Cl)cnn(Cc3cccc4ccccc34)c2=O)c1 (configuration not stated) | – | – | – | – | – | 0.553 µM (active) | 0.553 µM (active) | – | – |
